Bridge positions count the residues as written; N and C are the ends. Square brackets hold non-standard residues; d marks the D form. Peptide text beside a SMILES is read from it. * marks the point of attachment. X1 = CC[C@H](C)CCCCC(=O)*; Dab = NCC[C@H](N)C(=O)O
Columns and labels:
[1] = Accumulation of colistin in the kidneys after intravenous injection; format: in vivo; details: rats, colistin 0.5 mg/kg, SCDC 2 mg/kg
Experimental: In this experiment was determined, the accumulation of colistin in the kidneys of rats after intravenous injection of Polyfro (colistin, SCDC and liposomal cholecalciferol). Concentrations of colistin (CC), SCDC/cholecalciferol (CCF) were used based on preliminary modeling (the number of binding sites in one molecule, multiplied by their number in one megalin molecule, the molecular weight of megalin and the approximate amount of megalin in one kidney and the weight of the kidney) The result was the required amount of SCDC about 2 mg/kg of weight. For CS, a subtoxic dose was selected (based on the instructions). This is an experiment on the “displacement” of polymyxin from the kidneys with a synergistic combination of SCDC/HCF. As a result, about half of the polymyxin was displaced from the kidneys by SCDC/HCF. All components of CC, SCDC/CCF were determined in the sediment of renal homogenate and supernatant by HPLC. […] The content of colistin in the kidneys (A) and its concentration in terms of the weight of the kidneys (μg/g) (B) are shown in FIG. 1.
All data are statistically significant and differences between groups and controls are significant.

[2] = Degree of destruction of kidney tissue: urinary NGAL and NAG (ELISA); format: in vivo, rats
Experimental: The degree of destruction of kidney tissue was determined by the concentration in the urine of acetyl-beta-glucosaminidase (N-acetyl-beta-d-glucosaminidase) (NAG) and neutrophilic gelatinase-associated lipocalin (neutrophil gelatinase-associated lipocalin) (NGAL) (Table 5).
The concentrations of NGAL and NAG in urine were determined using ELISA-text systems on a StatFax303+reader.

[3] = biological target: T1, megalin of rat kidney homogenate (Rattus norvegicus, UniProt P98158); assay: Binding of cyanocobalamin derivatives to renal megalin (micromethod in Eppendorf tubes, HPLC of supernatant); details: derivative in supernatant after centrifugation determined by HPLC
T1 construct: megalin of rat kidney homogenate; from tissue; host or cells: rat kidney homogenate
Experimental: The test was carried out by a micromethod in Eppendorf tubes on the ability of cyanocobalamin derivatives to bind to megalin: after centrifugation, the bound derivative together with megalin remained in the sediment, and the percentage of the remaining unreacted cyanocobalamin derivative in the supernatant was determined using HPLC on a Milichrom A-02 liquid chromatograph.

[4] = Table 5, rats, i.v. 1 time per day for 10 days, 0.5/15 mg/kg polymyxin/SCDC

T1 sequence (P98158 26-4660): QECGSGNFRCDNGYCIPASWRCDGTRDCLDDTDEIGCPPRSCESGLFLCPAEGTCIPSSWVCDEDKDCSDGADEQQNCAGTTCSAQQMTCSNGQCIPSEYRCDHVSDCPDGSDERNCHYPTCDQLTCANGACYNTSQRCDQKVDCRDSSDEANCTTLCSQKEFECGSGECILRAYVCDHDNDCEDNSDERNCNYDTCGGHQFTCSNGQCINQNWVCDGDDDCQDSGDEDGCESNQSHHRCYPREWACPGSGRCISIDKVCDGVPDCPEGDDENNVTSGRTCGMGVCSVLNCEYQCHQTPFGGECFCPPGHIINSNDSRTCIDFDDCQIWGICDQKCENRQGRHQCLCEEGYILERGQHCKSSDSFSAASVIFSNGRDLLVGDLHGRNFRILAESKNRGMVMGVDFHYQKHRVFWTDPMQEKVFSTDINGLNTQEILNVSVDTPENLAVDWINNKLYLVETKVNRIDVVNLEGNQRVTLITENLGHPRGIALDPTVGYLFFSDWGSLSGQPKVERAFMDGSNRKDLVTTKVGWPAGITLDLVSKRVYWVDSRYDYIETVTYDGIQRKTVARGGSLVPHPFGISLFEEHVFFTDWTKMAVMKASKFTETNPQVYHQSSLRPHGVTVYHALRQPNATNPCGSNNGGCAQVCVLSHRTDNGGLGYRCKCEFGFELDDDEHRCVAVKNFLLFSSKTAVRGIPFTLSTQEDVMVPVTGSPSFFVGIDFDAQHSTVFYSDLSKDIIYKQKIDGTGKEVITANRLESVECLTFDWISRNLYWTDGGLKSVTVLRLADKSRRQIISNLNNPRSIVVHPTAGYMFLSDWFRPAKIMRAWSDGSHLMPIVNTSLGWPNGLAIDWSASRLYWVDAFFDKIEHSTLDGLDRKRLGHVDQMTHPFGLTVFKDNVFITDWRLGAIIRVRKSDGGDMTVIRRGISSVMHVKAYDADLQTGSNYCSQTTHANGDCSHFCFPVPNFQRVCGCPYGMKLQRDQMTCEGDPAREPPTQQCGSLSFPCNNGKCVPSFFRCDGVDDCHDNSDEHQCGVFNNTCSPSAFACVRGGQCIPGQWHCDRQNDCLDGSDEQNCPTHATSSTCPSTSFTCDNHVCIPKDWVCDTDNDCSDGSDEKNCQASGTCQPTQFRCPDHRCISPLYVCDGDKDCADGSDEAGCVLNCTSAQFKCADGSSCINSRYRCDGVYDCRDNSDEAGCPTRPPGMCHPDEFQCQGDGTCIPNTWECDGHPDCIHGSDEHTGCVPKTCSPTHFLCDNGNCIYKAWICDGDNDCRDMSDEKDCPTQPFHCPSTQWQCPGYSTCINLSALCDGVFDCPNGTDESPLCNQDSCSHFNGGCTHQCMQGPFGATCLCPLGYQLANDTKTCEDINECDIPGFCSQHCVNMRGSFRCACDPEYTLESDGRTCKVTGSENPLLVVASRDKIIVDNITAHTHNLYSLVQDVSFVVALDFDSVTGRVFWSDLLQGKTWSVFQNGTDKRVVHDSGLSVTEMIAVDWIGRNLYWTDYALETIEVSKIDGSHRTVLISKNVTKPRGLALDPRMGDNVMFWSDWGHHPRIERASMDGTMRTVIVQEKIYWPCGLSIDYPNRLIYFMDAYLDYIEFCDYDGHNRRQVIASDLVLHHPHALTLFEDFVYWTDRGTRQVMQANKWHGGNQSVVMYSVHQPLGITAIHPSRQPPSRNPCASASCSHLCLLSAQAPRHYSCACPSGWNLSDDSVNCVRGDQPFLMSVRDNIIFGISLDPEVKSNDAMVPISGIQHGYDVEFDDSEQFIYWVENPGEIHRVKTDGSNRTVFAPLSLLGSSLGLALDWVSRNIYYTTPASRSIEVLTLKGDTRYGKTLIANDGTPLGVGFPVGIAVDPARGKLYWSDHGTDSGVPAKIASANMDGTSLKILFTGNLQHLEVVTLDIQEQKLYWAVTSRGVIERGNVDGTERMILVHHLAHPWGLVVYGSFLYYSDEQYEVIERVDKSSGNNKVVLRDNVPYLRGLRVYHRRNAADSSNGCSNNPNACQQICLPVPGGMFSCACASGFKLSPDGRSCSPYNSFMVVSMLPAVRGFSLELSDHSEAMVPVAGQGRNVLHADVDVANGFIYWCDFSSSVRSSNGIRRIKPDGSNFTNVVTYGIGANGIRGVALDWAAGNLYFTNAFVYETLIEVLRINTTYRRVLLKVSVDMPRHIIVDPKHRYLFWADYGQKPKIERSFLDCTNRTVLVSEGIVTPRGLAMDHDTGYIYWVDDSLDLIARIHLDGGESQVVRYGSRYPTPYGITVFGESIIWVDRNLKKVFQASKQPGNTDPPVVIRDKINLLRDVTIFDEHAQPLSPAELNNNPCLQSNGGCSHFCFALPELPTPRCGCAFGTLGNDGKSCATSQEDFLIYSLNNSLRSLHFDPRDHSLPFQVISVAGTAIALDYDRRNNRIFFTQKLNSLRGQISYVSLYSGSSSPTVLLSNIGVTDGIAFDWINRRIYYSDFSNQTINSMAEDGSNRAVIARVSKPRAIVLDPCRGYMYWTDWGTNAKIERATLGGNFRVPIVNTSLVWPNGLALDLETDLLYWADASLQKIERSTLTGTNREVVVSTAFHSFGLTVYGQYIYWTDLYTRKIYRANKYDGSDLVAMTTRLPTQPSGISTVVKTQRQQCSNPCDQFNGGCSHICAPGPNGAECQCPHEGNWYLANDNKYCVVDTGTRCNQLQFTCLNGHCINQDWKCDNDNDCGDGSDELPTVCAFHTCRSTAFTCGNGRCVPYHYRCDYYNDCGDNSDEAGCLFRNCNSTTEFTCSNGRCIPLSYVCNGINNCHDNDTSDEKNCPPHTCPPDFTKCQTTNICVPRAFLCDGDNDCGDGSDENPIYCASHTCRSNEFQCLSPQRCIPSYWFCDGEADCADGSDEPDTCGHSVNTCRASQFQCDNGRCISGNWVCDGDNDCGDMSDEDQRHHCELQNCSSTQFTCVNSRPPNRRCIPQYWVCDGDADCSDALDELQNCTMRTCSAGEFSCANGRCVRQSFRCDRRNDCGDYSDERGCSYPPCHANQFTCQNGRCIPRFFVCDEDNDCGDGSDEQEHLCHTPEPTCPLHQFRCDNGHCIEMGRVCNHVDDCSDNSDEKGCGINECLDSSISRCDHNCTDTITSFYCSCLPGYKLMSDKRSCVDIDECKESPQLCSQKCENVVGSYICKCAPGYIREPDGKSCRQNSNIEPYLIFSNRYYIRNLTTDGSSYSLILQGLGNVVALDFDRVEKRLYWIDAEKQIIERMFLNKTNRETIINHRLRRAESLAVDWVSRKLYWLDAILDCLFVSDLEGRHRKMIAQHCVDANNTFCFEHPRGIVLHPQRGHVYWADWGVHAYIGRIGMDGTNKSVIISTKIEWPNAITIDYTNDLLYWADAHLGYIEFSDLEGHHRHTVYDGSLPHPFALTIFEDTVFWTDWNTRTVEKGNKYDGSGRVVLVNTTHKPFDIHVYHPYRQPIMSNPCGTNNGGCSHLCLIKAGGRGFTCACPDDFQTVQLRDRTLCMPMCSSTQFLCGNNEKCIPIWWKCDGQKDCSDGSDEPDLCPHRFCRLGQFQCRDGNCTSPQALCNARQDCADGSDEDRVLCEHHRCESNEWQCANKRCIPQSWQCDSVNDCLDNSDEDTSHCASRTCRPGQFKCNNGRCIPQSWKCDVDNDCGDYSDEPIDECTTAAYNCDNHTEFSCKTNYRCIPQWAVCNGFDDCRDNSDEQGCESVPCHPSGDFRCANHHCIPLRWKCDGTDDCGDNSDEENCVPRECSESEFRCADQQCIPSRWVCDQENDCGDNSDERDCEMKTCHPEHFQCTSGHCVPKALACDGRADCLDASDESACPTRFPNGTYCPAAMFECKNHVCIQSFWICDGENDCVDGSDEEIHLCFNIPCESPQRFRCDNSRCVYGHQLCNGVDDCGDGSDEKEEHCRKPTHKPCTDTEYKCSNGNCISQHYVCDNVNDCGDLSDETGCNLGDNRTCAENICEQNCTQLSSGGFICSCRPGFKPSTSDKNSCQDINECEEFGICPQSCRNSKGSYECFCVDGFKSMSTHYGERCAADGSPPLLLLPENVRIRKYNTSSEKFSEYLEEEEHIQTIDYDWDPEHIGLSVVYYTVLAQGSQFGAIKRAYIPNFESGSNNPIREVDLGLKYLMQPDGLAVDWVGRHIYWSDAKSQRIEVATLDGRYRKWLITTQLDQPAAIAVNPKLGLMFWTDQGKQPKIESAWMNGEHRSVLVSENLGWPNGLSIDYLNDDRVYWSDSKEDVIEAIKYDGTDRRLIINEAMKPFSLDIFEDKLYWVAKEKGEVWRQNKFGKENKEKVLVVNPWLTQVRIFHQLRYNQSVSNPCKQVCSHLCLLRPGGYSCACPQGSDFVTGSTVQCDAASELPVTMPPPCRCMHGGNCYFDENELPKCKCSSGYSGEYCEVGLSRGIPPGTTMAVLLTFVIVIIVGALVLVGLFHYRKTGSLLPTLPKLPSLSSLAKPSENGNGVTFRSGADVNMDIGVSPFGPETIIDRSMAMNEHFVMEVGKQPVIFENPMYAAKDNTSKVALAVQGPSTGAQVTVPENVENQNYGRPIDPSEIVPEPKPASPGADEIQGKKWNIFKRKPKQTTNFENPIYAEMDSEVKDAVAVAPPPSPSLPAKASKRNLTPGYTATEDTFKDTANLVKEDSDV

What does the source list for `CC[C@H](C)CCCCC(=O)N[C@@H](CCN)C(=O)N[C@H](C(=O)N[C@@H](CCN)C(=O)N[C@H]1CCNC(=O)[C@H]([C@@H](C)O)NC(=O)[C@H](CCN)NC(=O)[C@H](CCN)NC(=O)[C@H](CC(C)C)NC(=O)[C@@H](CC(C)C)NC(=O)[C@H](CCN)NC1=O)[C@@H](C)O` [Colistin, colistin] (X1-[Dab]T[Dab][Dab][Dab][dL]L[Dab][Dab]T; lactam 4-C)?
Accumulation of colistin in the kidneys [1]: 20.5 ± 2.5 µg; Urinary Excretion of NGAL [2, 4]: 775 ± 33 µg/h; Urinary NAG Excretion [2, 4]: 2578 ± 95 µg/h; Urinary Excretion of NGAL ([2]; Table 6, n = 15): 775 ± 33 µg/h; Urinary NAG Excretion ([2]; Table 6, n = 15): 2578 ± 95 µg/h

Which “% bound derivative” value [3] does the source give for cyanocobalamin [derivative 11] here?
The value was 52%.

With “triacetyl-cyanocobalamin [derivative 31]” as the compound, how does the “% bound derivative” value [3] read?
The value was 7%.

Which “% bound derivative” value [3] does the source give for “trisuccinyl-cyanocobalamin [derivative 30]” here?
Its value is 6%.

From patent US11191806B2, “Polymyxin-based pharmaceutical composition for treating infectious diseases” (priority 2018, dated 2021)
